Experimental data: PubChem BioAssay (NCI)
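1) Cells in 96-well plates. 2) Compound, 48 h, 5 concentrations. 3) Linear interpolation between surrounding doses. 4) Unreached endpoint = highest concentration. GI50: concentration for 50% inhibition of growth. TGI marks complete inhibition of growth.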

Key:
Assay in all cases: NCI tumour cell line growth inhibition, 48 h
CCRF-CEM leukemia = test system: CCRF-CEM leukemia
SNB-19 CNS = test system: SNB-19 CNS
OVCAR-8 ovarian = test system: OVCAR-8 ovarian
UO-31 renal = test system: UO-31 renal
HCT-116 colon = test system: HCT-116 colon
RXF 393 renal = test system: RXF 393 renal
ACHN renal = test system: ACHN renal
MCF7 breast = test system: MCF7 breast
NCI/ADR-RES ovarian = test system: NCI/ADR-RES ovarian
U251 CNS = test system: U251 CNS

Row | SMILES | GI50 (CCRF-CEM leukemia) | TGI (CCRF-CEM leukemia) | GI50 (SNB-19 CNS) | TGI (SNB-19 CNS) | GI50 (OVCAR-8 ovarian) | TGI (OVCAR-8 ovarian) | GI50 (UO-31 renal) | TGI (UO-31 renal) | GI50 (HCT-116 colon) | TGI (HCT-116 colon) | GI50 (RXF 393 renal) | TGI (RXF 393 renal) | GI50 (ACHN renal) | TGI (ACHN renal) | GI50 (MCF7 breast) | TGI (MCF7 breast) | GI50 (NCI/ADR-RES ovarian) | TGI (NCI/ADR-RES ovarian) | GI50 (U251 CNS) | TGI (U251 CNS)
1 | CCN(CC)c1cc(/C=C/c2ccc(OC)c(OC)c2)nc2cc(F)c(F)cc12 | 3.18 µM | 11 µM | 2.34 µM | 7.09 µM | 5.54 µM | 80.8 µM | 38.7 µM | > 100 µM | 5.35 µM | 17.5 µM | 1.8 µM | 4.01 µM | 2.56 µM | 9.76 µM | 15.9 µM | > 100 µM | 7.52 µM | > 100 µM | 2.18 µM | 4.98 µM
2 | C=C(C)[C@@H]1CC[C@]2(C)[C@H](C(=O)C=C3[C@@H]4C[C@](C)(C(=O)N5CCN(C)CC5)CC[C@]4(C)CC[C@]32C)[C@@]1(C)CCC#N | 6.62 µM | 16.3 µM | 7.87 µM | 14.9 µM | 8.12 µM | 16.2 µM | 5.37 µM | 11.3 µM | 3.03 µM | 9.33 µM | 5.32 µM | 11.4 µM | 7.02 µM | 13.5 µM | 5.45 µM | 12.5 µM | 6.83 µM | 13.9 µM | 6.05 µM | 12.7 µM
3 | Cc1nc2sccn2c(=O)c1CCN1CCC(=C(c2ccc(F)cc2)c2ccc(F)cc2)CC1 | 0.559 µM | 26.3 µM | 16 µM | 30.3 µM | 17 µM | 41 µM | 4.06 µM | 18.8 µM | 5.36 µM | 20.3 µM | 11.3 µM | 26.9 µM | 13.4 µM | 26.3 µM | 6.88 µM | 23 µM | 13.8 µM | 32.9 µM | 10.5 µM | 23.7 µM
